Assay results from EP2442784B1, “COMPOSITIONS AND METHODS FOR INHIBITING PAR2 ACTIVATION OF KERATINOCYTES” (THE PROCTER & GAMBLE COMPANY, priority 2010, dated 2012).

Target: T1, PAR-2 receptor (Homo sapiens, UniProt P55085)
T1 construct: host or cells: engineered cell line from DiscoveRx
T1 sequence (P55085 26-397): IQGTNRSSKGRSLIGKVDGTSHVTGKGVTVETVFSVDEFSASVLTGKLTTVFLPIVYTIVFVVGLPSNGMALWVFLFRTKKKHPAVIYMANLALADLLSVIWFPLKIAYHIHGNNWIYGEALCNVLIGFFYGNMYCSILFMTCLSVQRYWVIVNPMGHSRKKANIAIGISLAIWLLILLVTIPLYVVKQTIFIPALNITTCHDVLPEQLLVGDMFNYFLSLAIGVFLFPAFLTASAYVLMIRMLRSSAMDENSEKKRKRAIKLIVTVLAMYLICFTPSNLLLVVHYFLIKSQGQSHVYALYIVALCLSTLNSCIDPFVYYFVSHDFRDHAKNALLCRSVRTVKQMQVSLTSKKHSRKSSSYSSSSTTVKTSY
Assay: PAR-2 Inhibition Assay (beta arrestin recruitment / beta galactosidase complementation, luminescence; PAR2 activation by trypsin)
Type: cell-based
Settings: for PAR2 inhibitory effect (summary in words): over the dilution factors tested; for percent inhibition of PAR2 activation: activation by trypsin, triplicate
Description: PAR-2 Inhibition Assay - The assay principle relies on the recruitment of beta arrestin to the activated PAR-2 receptor resulting in the formation of an active beta galactosidase enzyme which can cleave a substrate causing a luminescent signal that can be quantitated. PAR-2 can be activated by either adding trypsin and also by adding SLIGRL peptide.
Cells expressing PAR-2 receptor coupled to the alpha fragment of beta galactosidase and expressing beta arrestin coupled to the beta fragment of beta galactosidase are obtained from DiscoveRx Corp., Freemont, CA. Cells are propagated in a culture medium of Dulbeccos Modified Eagle Medium supplemented with 10% heat-inactivated fetal bovine serum, 500 unit/mL penicillin, 500 ug/mL streptomycin, 800 ug/mL gentimicin, and 300 ug/mL hygromycin in T75 or T150 culture flasks (all media components available from Invitrogen Corp., Carlsbad, CA) in a CO2 incubator at 37°C. When cells reach approximately 80% confluency, the cells are detached from the flask using Cell Dissociation Buffer (available from Invitrogen Corp., Carlsbad, CA as item number 13151-014). The cells are counted using a hemocytometer and plated into 384 well plates at 10000 cells/well in 20 uL/well of Opti-MEM® media (available from Invitrogen Corp., Carlsbad, CA). The cells are cultured for 24 -48 hours.
To assay potential inhibitors of PAR2 activation by trypsin, each well is treated with 1 uL of the test material in water. Each test material is run in triplicate. The cells are incubated for 30 minutes in the CO2 incubator, after which 1 uL of trypsin is added (approximate 0.1 ug/uL). The cells are incubated for an hour in the CO2 incubator after which the cell lysis substrate solution (11 uL/well) is added. The lysis substrate solution is available in the PathHunter™ Detection Kit (catalogue #93-0001) from DiscoveRx Corp., Freemont, CA, in which the components are mixed in the following ratio: • Assay Buffer: Substrate 1: Substrate 2 = 19:5:1 The plates are briefly centrifuged (approximately 5 minutes) at 800 X g to remove bubbles and are then incubated at room temperature for 1 hr. Luminescence is read for each well on an Envision™ 2101 Multilabel Reader (available form PerkinElmer, Inc., Boston, MA). The range is determined by wells with solvent control + trypsin (high control) and by wells with solvent control and no trypsin (low control). The percent PAR2 inhibition of each treatment is calculated by the following formula of the luminescence signals: (1-([treatment luminescence-low control luminescence])/([high control luminescence-low control luminescence])) × 100 [formula] Statistics are done in Excel by Microsoft, Redmond, WA, using the T-test function, single tail with uneven distribution functions.
Using the assay outlined above, various concentrations and combinations of Laminaria Saccharina extract (e.g., Phlorogine), N-acyl Amino Acid (e.g., Sepiwhite), and vitamin B3 (e.g., niacinamide) were tested. Stock compositions of 1% Phlorogine (i.e., composition comprises approximately 0.025% - 0.01% Laminaria Saccharina extract), 1% Sepiwhite, 5% niacinamide, and combinations thereof are prepared and diluted prior to use. Test runs are performed at dilution factors of 0.045, 0.023, and 0.006. For clarity purposes, the 1% Sepiwhite composition diluted at a factor of 0.045 yields a test compositing comprising 0.045% Sepiwhite.

[1] = stock composition diluted at dilution factor 0.006
[2] = stock composition diluted at dilution factor 0.023
[3] = stock composition diluted at dilution factor 0.045 (e.g. 0.045% Sepiwhite), 100% = control without trypsin

SMILES | PAR2 inhibitory effect (summary in words) | percent inhibition of PAR2 activation [1] [%] | percent inhibition of PAR2 activation [2] [%] | percent inhibition of PAR2 activation [3] [%]
C=CCCCCCCCCC(=O)N[C@@H](Cc1ccccc1)C(=O)O [1% Sepiwhite, N-undecylenoyl-L-phenylalanine] | inhibitory effect which is pronounced at higher dilutions | 14 | 35 | 53
NC(=O)c1cccnc1 [5% Niacinamide, niacinamide] | inhibitory effect which is pronounced at higher dilutions | 5 | 14 | 20
